Laboratory results reported in the supplement of paper PMC10307832.

Tests used:
Assay in all cases: relative viability (nuclei count vs DMSO), 5 days (fraction); higher = more cells survive
[1] = compound: CC1=C(C(=NN1)C)CC2=C(C3=C(S2)N(C(=O)N(C3=O)C)CC(C)C)C(=O)N4C[C@@H](CO4)O + O=C(c1cc(Cc2n[nH]c(=O)c3ccccc23)ccc1F)N1CCN(C(=O)C2CC2)CC1 [Olaparib] (partner 8 µM)
Outline: (§1)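 Cells from lung cancer lines were seeded into 1536-well plates and, one day later, dosed by pin tool. Treatments were either a single drug or a fixed dose of an anchor drug with five library-drug doses (not always all listed) in √10 steps. After 5 days, nuclei were stained in a one-step fixation (final 0.05% Triton X-100, 1% formaldehyde, 1 ug/ml Hoechst) and counted on 4× images, and relative viability is the treated-to-vehicle nuclei ratio, as the median of duplicate plates.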

[2] = compound: Cc1ccccc1C(C(=O)NC1CCCCC1)N(C(=O)Cn1ccnc1C)c1cccc(F)c1 [IDH-C35] + O=C(CCCCCCC(=O)Nc1ccccc1)NO [Vorinostat] (partner 1 µM)
Outline: as §1

[3] = compound: CC1=C(C(=NN1)C)CC2=C(C3=C(S2)N(C(=O)N(C3=O)C)CC(C)C)C(=O)N4C[C@@H](CO4)O + Nc1nc2[nH]cc(CCc3ccc(C(=O)N[C@@H](CCC(=O)O)C(=O)O)cc3)c2c(=O)[nH]1 [Pemetrexed] (partner 0.2 µM)
Outline: as §1

[4] = compound: Cc1ccccc1C(C(=O)NC1CCCCC1)N(C(=O)Cn1ccnc1C)c1cccc(F)c1 [IDH-C35] + CS(=O)(=O)N1CCN(Cc2cc3nc(-c4cccc5[nH]ncc45)nc(N4CCOCC4)c3s2)CC1 [Pictilisib] (partner 1 µM)
Outline: as §1

Cell Line	relative viability ([1]; first compound 0.0025 µM)	relative viability ([1]; first compound 0.007906 µM)	relative viability ([1]; first compound 0.025 µM)	relative viability ([1]; first compound 0.07906 µM)	relative viability ([1]; first compound 0.25 µM)	relative viability ([2]; first compound 0.08 µM)	relative viability ([2]; first compound 0.253 µM)	relative viability ([2]; first compound 0.8 µM)	relative viability ([2]; first compound 2.53 µM)	relative viability ([2]; first compound 8 µM)	relative viability ([3]; first compound 0.0025 µM)	relative viability ([3]; first compound 0.007906 µM)	relative viability ([3]; first compound 0.025 µM)	relative viability ([3]; first compound 0.07906 µM)	relative viability ([3]; first compound 0.25 µM)	relative viability ([4]; first compound 0.08 µM)	relative viability ([4]; first compound 0.253 µM)	relative viability ([4]; first compound 0.8 µM)	relative viability ([4]; first compound 2.53 µM)	relative viability ([4]; first compound 8 µM)
201T	0.852	0.815	0.828	0.845	0.853	1	0.942	0.946	0.641	0.951	0.311	0.342	0.322	0.309	0.32	0.651	0.731	0.634	0.661	0.676
A549	0.322	0.391	0.355	0.358	0.4	–	–	–	–	–	–	–	–	–	–	0.532	0.504	0.595	0.472	0.401
A-427	0.762	0.769	0.706	0.729	0.886	0.868	0.796	0.848	0.901	0.856	1	1.07	0.935	0.906	0.983	0.621	0.801	0.615	0.466	0.791
ABC-1	0.487	0.519	–	0.485	0.517	1.12	1.07	0.941	1.23	1.3	–	–	–	–	–	0.675	0.667	0.617	0.984	0.908
BEN	0.868	0.709	0.684	0.806	0.712	0.576	0.608	0.618	0.568	0.593	0.697	0.836	0.558	0.665	0.687	0.545	0.568	0.54	0.54	0.505
CAL-12T	0.732	0.704	0.67	0.755	0.772	0.69	0.947	0.815	0.882	0.791	1.28	1.36	0.956	1.08	1.38	0.347	0.429	0.559	0.339	0.608
COR-L23	0.404	0.33	0.298	0.328	0.325	0.503	0.421	0.404	0.408	0.409	0.22	0.214	0.195	0.223	0.204	0.85	0.769	0.833	0.79	0.833
COR-L 105	0.604	0.587	0.617	0.771	0.656	0.932	0.959	0.722	0.803	0.688	1.27	1.15	1.06	1.24	1.35	0.442	0.477	0.354	0.383	0.392
Calu-6	0.532	0.501	0.557	0.59	0.603	–	–	–	–	–	–	–	–	–	–	0.875	0.895	0.881	0.877	0.898
ChaGo-K-1	0.466	0.42	0.414	0.404	0.435	0.758	0.814	0.8	0.586	0.68	0.26	0.261	0.261	0.254	0.249	0.451	0.71	0.742	0.681	0.918
EBC-1	0.738	0.705	0.718	0.836	0.748	–	–	–	–	–	–	–	–	–	–	0.397	0.414	0.339	0.353	0.377
EKVX	1.02	0.969	0.892	0.775	0.988	0.876	0.678	0.769	0.738	0.698	0.365	0.429	0.412	0.293	0.422	0.42	0.459	0.371	0.423	0.475
EMC-BAC-2	0.546	0.464	0.474	0.489	0.527	0.474	0.464	0.47	0.528	0.542	0.46	0.468	0.415	0.44	0.454	0.493	0.55	0.51	0.487	0.521
EPLC-272H	0.69	0.778	0.771	0.844	1.09	0.314	0.406	0.515	0.494	0.403	0.356	0.333	0.41	0.301	0.348	0.369	0.338	0.283	–	0.329
H3255	0.555	0.56	0.52	0.546	0.576	0.8	0.925	0.875	0.73	0.868	0.632	0.576	0.496	0.618	0.563	0.454	0.546	0.474	0.503	0.424
HARA	1.1	0.76	0.689	0.542	0.81	0.624	0.436	0.517	–	0.525	0.218	0.215	0.262	0.273	0.255	0.369	0.455	0.483	0.415	0.328
HCC-15	0.721	0.707	0.69	0.697	0.766	0.796	0.857	0.877	–	0.707	0.214	0.214	0.225	0.215	0.211	0.719	0.727	0.682	0.618	0.645
HCC-44	1.02	1	0.952	0.891	1.05	1.11	1.09	1.12	1.13	1.11	0.633	0.643	0.675	0.599	0.694	0.537	0.593	0.551	0.674	0.632
